Source: ChEMBL document CHEMBL5584340, “Discovery of Novel Antiosteoporosis Leads with Bone Resorption Inhibition and Anabolic Promotion through a Chemotype-Assembly Approach” (J Med Chem, 2024)
The source made the active and inactive calls. No cut-off for these calls is given here.

How the values were obtained:
BMDM [1] = experiment: Anti-osteoclastogenic activity in M-CSF/RANKL-induced C57BL/6 mouse BMDM cells assessed as inhibition of M-CSF/RANKL-stimulated osteoclast differentiation measured after 5 days by TRAP staining based microscopic analysis; assay type: functional, cell-based; conditions: C57BL/6, BMDM, 120 h
[2] = Cytotoxicity against mouse RAW264.7 cells incubated for 48 hrs by CCK-8 assay; assay type: toxicity, cell-based
BMDM [3] = experiment: Anti-osteoclastogenic activity in M-CSF/RANKL-induced C57BL/6 mouse BMDM cells assessed as downregulation of ATP6VOD2 mRNA expression at 1 uM incubated for 7 days by RT-qPCR analysis; assay type: functional, cell-based; conditions: time 7.0 day
BMDM [4] = experiment: Anti-osteoclastogenic activity in M-CSF/RANKL-induced C57BL/6 mouse BMDM cells assessed as downregulation of C-Fos mRNA expression at 1 uM incubated for 7 days by RT-qPCR analysis; assay type: functional, cell-based; conditions: time 7.0 day
BMDM [5] = experiment: Anti-osteoclastogenic activity in M-CSF/RANKL-induced C57BL/6 mouse BMDM cells assessed as downregulation of CTSK mRNA expression at 1 uM incubated for 7 days by RT-qPCR analysis; assay type: functional, cell-based; conditions: time 7.0 day
BMDM [6] = experiment: Anti-osteoclastogenic activity in M-CSF/RANKL-induced C57BL/6 mouse BMDM cells assessed as downregulation of TRACP mRNA expression at 1 uM incubated for 7 days by RT-qPCR analysis; assay type: functional, cell-based; conditions: time 7.0 day
C3H 10T1/2 [7] = experiment: Induction of osteoblast differentiation in mouse C3H 10T1/2 cells at 1 uM incubated for 7 days by ALP staining based analysis; assay type: functional, cell-based; conditions: time 7.0 day
C3H 10T1/2 [8] = experiment: Induction of osteoblast mineralization in mouse C3H 10T1/2 cells assessed as increase in calcium deposition at 1 uM measured after 14 days by Alizarin Red S staining based analysis; assay type: functional, cell-based; conditions: time 14.0 day
C3H 10T1/2 [9] = experiment: Induction of osteoblastogenesis in mouse C3H 10T1/2 cells assessed as upregulation of ALP gene expression at 1 uM incubated for 7 days by RT-qPCR analysis; assay type: functional, cell-based; conditions: time 7.0 day
C3H 10T1/2 [10] = experiment: Induction of osteoblastogenesis in mouse C3H 10T1/2 cells assessed as upregulation of SP7 gene expression at 1 uM incubated for 7 days by RT-qPCR analysis; assay type: functional, cell-based; conditions: time 7.0 day
C3H 10T1/2 [11] = experiment: Induction of osteoblastogenesis in mouse C3H 10T1/2 cells assessed as upregulation of SPARC gene expression at 1 uM incubated for 7 days by RT-qPCR analysis; assay type: functional, cell-based; conditions: time 7.0 day
C3H 10T1/2 [12] = experiment: Induction of osteoclastogenesis in mouse C3H 10T1/2 cells assessed as upregulation of RANKL gene expression at 1 uM incubated for 7 days by RT-qPCR analysis; assay type: functional, cell-based; conditions: time 7.0 day
[13] = Toxicity in OVX-induced osteoporosis C57BL/6 mouse model assessed as change in water intake at 30 mg/kg,po administrated for 1 week; assay type: organism-based; conditions: in vivo, 168 h, time 1 weeks
[14] = Toxicity in OVX-induced osteoporosis C57BL/6 mouse model assessed as change in body weight at 30 mg/kg,po administrated for 1 week; assay type: organism-based; conditions: in vivo, 168 h, time 1 weeks
[15] = Toxicity in OVX-induced osteoporosis C57BL/6 mouse model assessed as change in hair color at 30 mg/kg,po administrated for 1 week; assay type: organism-based; conditions: in vivo, 168 h, time 1 weeks
[16] = Toxicity in OVX-induced osteoporosis C57BL/6 mouse model assessed as change in mental state at 30 mg/kg,po administrated for 1 week; assay type: organism-based; conditions: in vivo, 168 h, time 1 weeks
[17] = Toxicity in OVX-induced osteoporosis C57BL/6 mouse model assessed as change in stool state at 30 mg/kg,po administrated for 1 week; assay type: organism-based; conditions: in vivo, 168 h, time 1 weeks
[18] = Toxicity in OVX-induced osteoporosis C57BL/6 mouse model assessed as change in urine color at 30 mg/kg,po administrated for 1 week; assay type: organism-based; conditions: in vivo, 168 h, time 1 weeks
Mus musculus [19] = experiment: Anti-osteoporosis activity in OVX-induced osteoporosis C57BL/6 mouse model assessed as prevention of bone loss in femur at 10 mg/kg,po administrated for 4 weeks by Micro-CT analysis; assay type: functional, organism-based
Mus musculus [20] = experiment: Anti-osteoporosis activity in OVX-induced osteoporosis C57BL/6 mouse model assessed as increase in BV/TV in femur at 10 mg/kg,po administrated for 4 weeks by Micro-CT analysis; assay type: functional, organism-based
Mus musculus [21] = experiment: Anti-osteoporosis activity in OVX-induced osteoporosis C57BL/6 mouse model assessed as increase in […] in femur at 10 mg/kg,po administrated for 4 weeks by Micro-CT analysis; assay type: functional, organism-based
Mus musculus [22] = experiment: Anti-osteoporosis activity in OVX-induced osteoporosis C57BL/6 mouse model assessed as increase in trabecular number in femur at 10 mg/kg,po administrated for 4 weeks by Micro-CT analysis; assay type: functional, organism-based
Mus musculus [23] = experiment: Anti-osteoporosis activity in OVX-induced osteoporosis C57BL/6 mouse model assessed as increase in trabecular thickness in femur at 10 mg/kg,po administrated for 4 weeks by Micro-CT analysis; assay type: functional, organism-based
Mus musculus [24] = experiment: Anti-osteoporosis activity in OVX-induced osteoporosis C57BL/6 mouse model assessed as decrease in serum CTX-I level at 10 mg/kg,po administrated for 4 weeks; assay type: functional, organism-based
Mus musculus [25] = experiment: Anti-osteoporosis activity in OVX-induced osteoporosis C57BL/6 mouse model assessed as increase in serum osteocalcin level at 10 mg/kg,po administrated for 4 weeks; assay type: functional, organism-based
Mus musculus [26] = experiment: Anti-osteoporosis activity in OVX-induced osteoporosis C57BL/6 mouse model assessed as increase in serum PINP level at 10 mg/kg,po administrated for 4 weeks; assay type: functional, organism-based
[27] = Toxicity in OVX-induced osteoporosis C57BL/6 mouse model assessed as change in serum ALT level at 10 mg/kg,po administrated for 4 week; assay type: organism-based; conditions: in vivo, 672 h, time 4 weeks
[28] = Toxicity in OVX-induced osteoporosis C57BL/6 mouse model assessed as change in serum AST level at 10 mg/kg,po administrated for 4 week; assay type: organism-based; conditions: in vivo, 672 h, time 4 weeks
[29] = Toxicity in OVX-induced osteoporosis C57BL/6 mouse model assessed as change in serum creatinine level at 10 mg/kg,po administrated for 4 week; assay type: organism-based; conditions: in vivo, 672 h, time 4 weeks
[30] = Toxicity in OVX-induced osteoporosis C57BL/6 mouse model assessed as change in serum urea nitrogen level at 10 mg/kg,po administrated for 4 week; assay type: organism-based; conditions: in vivo, 672 h, time 4 weeks
[31] = Toxicity in OVX-induced osteoporosis C57BL/6 mouse model assessed as change in serum total cholesterol level at 10 mg/kg,po administrated for 4 week; assay type: organism-based; conditions: in vivo, 672 h, time 4 weeks
[32] = Toxicity in OVX-induced osteoporosis C57BL/6 mouse model assessed as change in serum triglyceride level at 10 mg/kg,po administrated for 4 week; assay type: organism-based; conditions: in vivo, 672 h, time 4 weeks
BMDM [33] = experiment: Anti-osteoclastogenic activity in M-CSF/RANKL-induced C57BL/6 mouse BMDM cells assessed as fold change in inhibition of M-CSF/RANKL-stimulated osteoclast differentiation at 10 uM measured after 5 days by TRAP staining based microscopic analysis relative to control; assay type: functional; conditions: time 5 day

SMILES: O=C(O)c1cc2ccccc2cc1C(=O)Nc1nc2ccccc2s1
- IC50 (BMDM [1]): 0.4 µM
- CC50 at 48 h [2]: 65.5 µM
- Activity (BMDM [3]): Active
- Activity (BMDM [4]): Active
- Activity (BMDM [5]): Active
- Activity (BMDM [6]): Active
- Activity (C3H 10T1/2 [7]): Active
- Activity (C3H 10T1/2 [8]): Active
- Activity (C3H 10T1/2 [9]): Active
- Activity (C3H 10T1/2 [10]): Active
- Activity (C3H 10T1/2 [11]): Active
- Activity (C3H 10T1/2 [12]): inactive
- Activity [13]: Non-Toxic
- Activity [14]: Non-Toxic
- Activity [15]: Non-Toxic
- Activity [16]: Non-Toxic
- Activity [17]: Non-Toxic
- Activity [18]: Non-Toxic
- Activity (Mus musculus [19]): Active
- Activity (Mus musculus [20]): Active
- Activity (Mus musculus [21]): Active
- Activity (Mus musculus [22]): Active
- Activity (Mus musculus [23]): Active
- Activity (Mus musculus [24]): Active
- Activity (Mus musculus [25]): Active
- Activity (Mus musculus [26]): Active
- Activity [27]: Non-Toxic
- Activity [28]: Non-Toxic
- Activity [29]: Non-Toxic
- Activity [30]: Non-Toxic
- Activity [31]: Non-Toxic
- Activity [32]: Non-Toxic
- fold change (FC) (BMDM [33]): 21.25
